Source: the Deep4Chem optical property database
One block for each molecule: values may come before it.

Test: solvent given as SMILES

absorption maximum (in CC#N): 340 nm
absorption maximum (in CCCCCC): 335 nm
absorption maximum (in CCO): 339 nm
absorption maximum (in CN(C)C=O): 343 nm
absorption maximum (in CO): 340 nm
absorption maximum (in ClC(Cl)Cl): 342 nm
SMILES: COc1ccc(-n2nc(C#N)c(N3CCCC3)n2)cc1

absorption maximum (in CCO): 623 nm
absorption maximum (in CS(C)=O): 630 nm
absorption maximum (in O): 555 nm
SMILES: CC1(C)C(/C=C/c2cc3ccc(O)cc3oc2=O)=[N+](CCCS(=O)(=O)[O-])c2ccccc21

absorption maximum (in ClC(Cl)Cl): 385 nm
SMILES: CC(C)(C)N1C(=O)c2c(cc3ccc4cccc5ccc2c3c45)C1O (configuration not stated)

absorption maximum (in ClC(Cl)Cl): 609 nm
SMILES: CCCCCCCCN1C(=O)c2ccc3c4c(-c5ccc6c(c5)c5ccccc5n6-c5ccccc5)cc5c6c(ccc(c7c(-c8ccc9c(c8)c8ccccc8n9-c8ccccc8)cc(c2c37)C1=O)c64)C(=O)N(CCCCCCCC)C5=O

absorption maximum (in C1CCCCC1): 387 nm
absorption maximum (in CC#N): 392 nm
absorption maximum (in CC(C)O): 393 nm
absorption maximum (in CO): 396 nm
absorption maximum (in CS(C)=O): 405 nm
absorption maximum (in ClC(Cl)Cl): 395 nm
absorption maximum (in c1ccccc1): 394 nm
SMILES: COC(=O)c1ccc(-c2nc3ccc(N(C)C)cc3s2)cc1

absorption maximum (in O): 413 nm
SMILES: CN(C)c1ccc2c(c1)C(C)(C)C(=O)C=C2

absorption maximum (in C1CCCCC1): 351 nm
SMILES: CCCC1(CCC)c2cc(-c3ccc4c(c3)C(CCC)(CCC)c3cc(C(C)(C)CC)ccc3-4)ccc2-c2ccc(-c3ccc4c(c3)C(CCC)(CCC)c3cc(C(C)(C)CC)ccc3-4)cc21

absorption maximum (in ClC(Cl)Cl): 366 nm
SMILES: Clc1ccc(-c2nc(-c3ccccc3)sc2N(c2ccccc2)c2ccccc2)cc1

absorption maximum (in C1CCCCC1): 281 nm
SMILES: CCCCCCCCOc1ccc(C2=C(c3ccc(OCCCCCCCC)cc3)C(C)(C)c3ccccc32)cc1

absorption maximum (in CC#N): 300 nm
SMILES: O=c1ccc2ccc(C#Cc3ccccc3)cc2o1

absorption maximum (in CS(C)=O): 633 nm
SMILES: COc1ccc(-c2c3nc(cc4ccc([nH]4)c(-c4ccc(OC)c(OCC(=O)O)c4)c4nc(cc5ccc2[nH]5)C=C4)C=C3)cc1OCC(=O)O

absorption maximum (in C1CCOC1): 290 nm
SMILES: C1=C(c2ccccc2)C(c2ccccc2)=CC1c1ccccc1

absorption maximum (in c1ccccc1): 410 nm
SMILES: COc1ccc(-c2nc3c(ccc4ccccc43)oc2=O)cc1

absorption maximum (in C1CCOC1): 382 nm
SMILES: CC1(C)c2ccccc2-c2ccc(N(c3ccccc3)c3ccc4c(c3)C(C)(C)c3cc(-c5cc6ccccc6c6c5oc5ccccc56)ccc3-4)cc21

absorption maximum (in ClCCl): 430 nm
SMILES: CCCCCCc1cc2c3c(c1)c(=C1c4ccccc4Sc4ccccc41)c1cc(CCCCCC)cc4c1N3c1c(cc(CCCCCC)cc1c4=C1c3ccccc3Sc3ccccc31)c2=C1c2ccccc2Sc2ccccc21

absorption maximum (in ClCCl): 327 nm
SMILES: COC(=O)C1=C(C(=O)OC)C2(c3cc(Cl)ccc3-c3c(Cl)cc(Cl)cc32)C2(/C=C/c3ccccc3)c3cc(OC)c(OC)cc3CCN12 (configuration not stated)

absorption maximum (in CCO): 656 nm
SMILES: CCN(C(C)=O)c1cc2c(cc1C)C(c1ccccc1C(=O)O)=C1CCCC(/C=C/C3=[N+](C)c4ccccc4C3(C)C)=C1O2

absorption maximum (in ClCCl): 409 nm
SMILES: CCN(CC)c1ccc2cc(-c3ccc(-c4ccc(-c5cc6ccccc6oc5=O)cc4)cc3)c(=O)oc2c1

absorption maximum (in c1ccccc1): 364 nm
SMILES: Cc1nc2c(ccc3ccccc32)oc1=O

absorption maximum (in O): 454 nm
SMILES: CC[n+]1c(-c2ccccc2)c2cc(NC(N)=[NH2+])ccc2c2ccc(N)cc21

absorption maximum (in ClCCl): 402 nm
SMILES: Cc1cc(-c2ccc(C(C)(C)C)cc2)c2nsnc2c1-c1ccc(N(c2ccccc2)c2ccccc2)cc1

absorption maximum (in CCO): 395 nm
absorption maximum (in ClCCl): 397 nm
SMILES: N#Cc1ncc(-c2c3ccccc3c(-c3cnc(C#N)nc3)c3ccccc23)cn1

absorption maximum (in C1CCOC1): 390 nm
SMILES: N#Cc1c(N2CCCCC2)cc(-c2cccc3ccccc23)c2c1-c1ccccc1C2=O

absorption maximum (in ClC(Cl)Cl): 663 nm
SMILES: CCOC(=O)/C=C/C1=C(c2ccc(C)cc2)C2=Nc3c(-c4ccc(C)cc4)cc(-c4ccc(C)cc4)n3[B-](F)(F)[N+]2=C1c1ccc(C)cc1

absorption maximum (in CC#N): 618 nm
SMILES: CC(=O)OC[C@H]1O[C@@H](OCC#Cc2ccc(C3=C4C(C)=CC(/C=C/c5ccc([N+](C)(C)C)cc5)=[N+]4[B-](F)(F)n4c(/C=C/c5ccc([N+](C)(C)C)cc5)cc(C)c43)cc2)[C@H](OC(C)=O)C(OC(C)=O)[C@@H]1OC(C)=O (some centres not stated)

absorption maximum (in CC#N): 489 nm
absorption maximum (in O): 468 nm
SMILES: Nc1n[n+]([O-])c2cc(F)ccc2[n+]1[O-]

absorption maximum (in ClCCl): 490 nm
SMILES: CCCCCCCCOc1cc(/C=C/c2cc[n+](Cc3ccc(C)cc3)cc2)c(OCCCCCCCC)cc1/C=C/c1cc[n+](Cc2ccc(C)cc2)cc1

absorption maximum (in CC1CCCO1): 631 nm
SMILES: CC1=CC(/C=C/c2ccc(C)cc2)=[N+]2C1=C(c1ccccc1)c1c(C)cc(/C=C/c3ccc(C)cc3)n1[B-]2(F)F

absorption maximum (in ClC(Cl)Cl): 450 nm
SMILES: F[B-]1(F)OC(c2cc3c4c(c2)CCCN4CCC3)=Cc2cccc[n+]21

absorption maximum (in CC#N): 279 nm
absorption maximum (in CO): 278 nm
SMILES: CN1c2ccccc2CCc2ccccc21

Further lines, the molecule ahead of its results:

SMILES: O=C1C=C(Nc2ccccc2)CCC1
absorption maximum (in C1CCCCC1): 295 nm
absorption maximum (in C1CCOC1): 302 nm
absorption maximum (in C1COCCO1): 302 nm
absorption maximum (in CC1CCCCC1): 295 nm
absorption maximum (in CC#N): 307 nm
absorption maximum (in CC(C)O): 307 nm
absorption maximum (in CCO): 307 nm
absorption maximum (in CCOC(C)=O): 301 nm
absorption maximum (in CCOCC): 296 nm
absorption maximum (in CN(C)C=O): 306 nm
absorption maximum (in CO): 305 nm
absorption maximum (in CS(C)=O): 307 nm
absorption maximum (in ClC(Cl)(Cl)Cl): 299 nm
absorption maximum (in ClC(Cl)Cl): 303 nm
absorption maximum (in O): 306 nm

SMILES: CCCCn1c2ccccc2c2c1c1c3ccccc3n(CCCC)c1c1c3ccccc3n(CCCC)c21
absorption maximum (in C1CCOC1): 316 nm

SMILES: c1ccc(-c2nc(-c3ccccc3)nc(-c3ccc(-n4c5ccccc5c5cc(-n6c7ccccc7c7ccccc76)ccc54)c4c5ccccc5n(-c5ccccc5)c34)n2)cc1
absorption maximum (in Cc1ccccc1): 378.07 nm

SMILES: COc1cc(-c2nnc(-c3ccc4ccc5cccc6ccc3c4c56)o2)cc(OC)c1OC
absorption maximum (in C1CCOC1): 393 nm
absorption maximum (in CC1CCCCC1): 392 nm
absorption maximum (in CC#N): 391 nm
absorption maximum (in CCCCCC): 392 nm
absorption maximum (in Cc1ccccc1): 396 nm
absorption maximum (in ClC(Cl)Cl): 396 nm

SMILES: Cc1cc(C)c(-c2nnc(-c3ccc(-n4c5ccccc5c5ccccc54)c(C)c3)o2)c(C)c1
absorption maximum (in Cc1ccccc1): 339 nm

SMILES: O=C1OC(c2ccccc2)=N/C1=C\c1ccc(N(c2ccc(/C=C3\N=C(c4ccccc4)OC3=O)cc2)c2ccc(/C=C3/N=C(c4ccccc4)OC3=O)cc2)cc1
absorption maximum (in C1CCCCC1): 497.5 nm
absorption maximum (in C1CCOC1): 500 nm
absorption maximum (in C1COCCO1): 502 nm
absorption maximum (in CC1CCCCC1): 498.5 nm
absorption maximum (in CC#N): 498 nm
absorption maximum (in CC(C)=O): 499 nm
absorption maximum (in CC(C)CC(C)(C)C): 492 nm
absorption maximum (in CCCCC): 489 nm
absorption maximum (in CCCCCC): 491 nm
absorption maximum (in CCCCCCC): 495 nm
absorption maximum (in CCCCOCCCC): 497.5 nm
absorption maximum (in CCOC(C)=O): 496 nm
absorption maximum (in CCOCC): 496.5 nm
absorption maximum (in CN(C)C=O): 504 nm
absorption maximum (in CS(C)=O): 506 nm
absorption maximum (in Cc1ccccc1): 505.5 nm
absorption maximum (in ClC(Cl)Cl): 509.5 nm

SMILES: c1ccc2c(c1)Cc1ccccc1N2c1c2ccccc2c(N2c3ccccc3Cc3ccccc32)c2ccccc12
absorption maximum (in Cc1ccccc1): 440 nm

SMILES: COc1ccc(-c2cc(N3CCCCC3)c(C#N)c3c2-c2cccc4cccc-3c24)cc1
absorption maximum (in O): 430 nm

SMILES: COc1ccc(-c2ccc3c(c2)c2cc(-c4ccc(OC)cc4)ccc2n3-c2ccc(C(=O)c3ccc4sc5ccccc5c4c3)cc2)cc1
absorption maximum (in Cc1ccccc1): 366 nm

SMILES: CC(C)(C)c1ccc2c(c1)c1cc(C(C)(C)C)ccc1n2-c1ccc(-c2nc3cc(C#N)c(C#N)cc3nc2-c2ccc(-n3c4ccc(C(C)(C)C)cc4c4cc(C(C)(C)C)ccc43)cc2)cc1
absorption maximum (in Cc1ccccc1): 443 nm

SMILES: c1ccncc1
absorption maximum (in CC1CCCCC1): 252 nm
absorption maximum (in ClC(Cl)Cl): 253 nm
absorption maximum (in O): 253 nm

SMILES: CCOC(=O)COc1ccc(/C=C/c2cc(C)c3n2[B-](F)(F)[N+]2=C(c4[nH]c(C)cc4C)c4ccccc4C2=C3)cc1
absorption maximum (in C1CCOC1): 679 nm
absorption maximum (in CC#N): 670 nm
absorption maximum (in CCCCCC): 679 nm
absorption maximum (in CO): 671 nm
absorption maximum (in Cc1ccccc1): 678 nm
absorption maximum (in ClCCl): 680 nm

SMILES: COc1ccc(-c2c3ccccc3c3n2[B-](F)(F)[N+]2=Cc4c5ccccc5c(-c5ccc(OC)cc5)n4[B-](F)(F)[N+]2=C3)cc1
absorption maximum (in CC#N): 561 nm
absorption maximum (in CCCCCC): 573 nm
absorption maximum (in CN(C)C=O): 569 nm
absorption maximum (in Cc1ccccc1): 579 nm
absorption maximum (in ClCCl): 571 nm

SMILES: c1ccc2c(-n3cnc4ccccc43)cccc2c1
absorption maximum (in C1CCCCC1): 283 nm
absorption maximum (in C1CCOC1): 282 nm
absorption maximum (in CC#N): 286 nm
absorption maximum (in CCO): 284 nm
absorption maximum (in CCOC(C)=O): 283 nm
absorption maximum (in CCOCC): 284 nm
absorption maximum (in CO): 284 nm
absorption maximum (in Cc1ccccc1): 282 nm
absorption maximum (in ClC(Cl)Cl): 285 nm

SMILES: Cc1cc(C)c(C2=C3C=C(/C=C/C(=O)OC(C)(C)C)C=[N+]3[B-](F)(F)n3c2ccc3N2CCOCC2)c(C)c1
absorption maximum (in CC#N): 480 nm
absorption maximum (in CCCCCC): 532 nm
absorption maximum (in CN(C)C=O): 485 nm
absorption maximum (in CO): 483 nm
absorption maximum (in Cc1ccccc1): 525 nm
absorption maximum (in ClCCl): 497 nm

SMILES: CC1(C)OB(c2ccc3ccc4cccc5ccc2c3c45)OC1(C)C
absorption maximum (in Cc1ccccc1): 378 nm

SMILES: Cn1cccc1-c1cc(C#N)ccc1C#N
absorption maximum (in C1CCOC1): 370 nm
absorption maximum (in CC#N): 359 nm
absorption maximum (in CCCCCC): 366 nm
absorption maximum (in CCCCOCCCC): 370 nm
absorption maximum (in CCOCC): 364 nm

SMILES: CCOC(=O)/C(C#N)=C\c1ccc2c(c1)c1ccccc1n2-c1ccc(C)cc1
absorption maximum (in C1CCOC1): 390 nm
absorption maximum (in CC#N): 389 nm
absorption maximum (in CC(C)=O): 388 nm
absorption maximum (in CCOC(C)=O): 400 nm
absorption maximum (in CO): 391 nm
absorption maximum (in CS(C)=O): 397 nm
absorption maximum (in Cc1ccccc1): 396 nm
absorption maximum (in ClC(Cl)Cl): 389 nm

SMILES: CCOC(=O)c1sc(-c2ccc(-c3cc(C4CC4)c(C(=O)OCC)s3)s2)cc1C1CC1
absorption maximum (in ClCCl): 395 nm

SMILES: CC1=[N+]2C(=C(C3=CC4OCCOCCOCCOCCOC4C=C3)c3c4ccccc4c(/C=C/c4ccc(N(C)C)cc4)n3[B-]2(F)F)c2ccccc21 (configuration not stated)
absorption maximum (in CC#N): 693 nm

SMILES: Cc1cc(-c2nc(-c3ccccc3)nc(-c3ccccc3)n2)ccc1N1c2ccccc2C2(c3ccccc3-c3ccccc32)c2ccccc21
absorption maximum (in Cc1ccccc1): 394.19 nm
